According to patent publication US8236841B2, “Fused heterocycle derivative” (Kyowa Hakko Kirin Co., Ltd., priority 2006, dated 2012):

How the values were obtained:
CB2 receptor = target: T1, CB2 receptor (Rattus norvegicus, UniProt Q9QZN9); test: [3H]CP55940 binding assay, CB2 receptor (rat spleen membrane); conditions: [3H]CP55940 0.5 nmol/L, 25° C. 1 hour
T1 construct: from tissue; host or cells: rat spleen membranes
T1 sequence (Q9QZN9 1-360): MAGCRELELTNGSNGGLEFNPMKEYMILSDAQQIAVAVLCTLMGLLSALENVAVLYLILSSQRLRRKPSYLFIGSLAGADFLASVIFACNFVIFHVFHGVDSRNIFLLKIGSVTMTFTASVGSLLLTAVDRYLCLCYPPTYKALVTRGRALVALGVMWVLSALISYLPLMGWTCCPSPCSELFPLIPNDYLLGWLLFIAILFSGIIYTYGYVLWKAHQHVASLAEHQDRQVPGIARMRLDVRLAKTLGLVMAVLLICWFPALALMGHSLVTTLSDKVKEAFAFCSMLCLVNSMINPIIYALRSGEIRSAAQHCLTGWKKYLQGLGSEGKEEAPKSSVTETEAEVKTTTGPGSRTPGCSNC
Protocol: Cannabinoid CB1 and CB2 receptor-binding activities
The assay was performed according to a method of Hillard et al. (The Journal of Pharmacology and Experimental Therapeutics, vol. 289, p. 1427 (1999)). A rat forebrain membrane sample was prepared for use in the binding assay for CB1 receptor, and a rat spleen membrane sample was prepared for use in the binding assay for CB2 receptor. Each membrane sample (forebrain: final concentration of 0.5 mg·protein/mL, spleen: final concentration of 2 mg·protein/mL) together with each test compound and [^3H]CP55940 ((−)-cis-3-[2-hydroxy-[3,5-^3H]-4-(1,1-dimethylheptyl)-phenyl]-trans-4-(3-hydroxypropyl)cyclohexanol, manufactured by PerkinElmer, final concentration of 0.5 nmol/L), was incubated at 25° C. for 1 hour in the assay buffer solution (50 mmol/L Tris-HCl buffer solution (pH 7.4), 1 mmol/L EDTA and 3 mmol/L MgCl2) containing 0.1% bovine serum albumin. Then, the mixture was filtered through a glass filter GF/C (manufactured by Whatman) pretreated with 1% polyethyleneimine. After the glass filter was washed with the assay buffer solution containing 0.2% bovine serum albumin, the radioactivity on the glass filter was measured using a liquid scintillation counter (TRI-CARB 2700TR, manufactured by Packard). The nonspecific binding amount was defined as a binding amount in the presence of 10 μmol/L […] ((R)-(+)-[2,3-dihydro-5-methyl-3-(4-morpholinylmethyl)-pyrrolo[1,2,3-de]-1,4-benzoxazin-6-yl]-1-naphthalenylmethanone, manufactured by Tocris). The specific binding amount was presented as the difference between the total binding amount and the nonspecific binding amount. The 50% inhibitory concentration (IC50 value) of the test compound in the specific binding was determined. The Ki value of the test compound was calculated from this IC50 value and the Kd value for [^3H]CP55940 binding.

[1] = test system: rats with chronic constriction nerve injury; test: Analgesic effect in rats with chronic constriction nerve injury (von Frey filament); format: in vivo, rat; conditions: orally administered, dose of 50 mg/kg or less, one hour after administration, von Frey filaments
Excerpt: Analgesic Effect of Compounds in Rats with Chronic Constriction Nerve Injury
Rats with chronic constriction nerve injury were produced by partially modifying the method of Mosconi and Kruger et al. (Pain, vol. 64, pp. 37-57 (1996)).
Male Crl:CD(SD) rats were used for the experiments. Under pentobarbital anesthesia, the sciatic nerve of the left hind limb of the rat was exfoliated, and the exfoliated region was wrapped with a polyethylene tube (trade name: Intramedic, size: PE-60, manufactured by Becton Dickinson and Company) of 2 mm in length. On days 14 to 21 after the surgery, the rats were placed in an acrylic connected cage with a wire mesh floor (900 mm (length)×210 mm (depth)×140 mm (height)) consisting of 4 cages connected in a row and allowed to acclimate to the environment for at least 20 minutes, and then, the pain was evaluated.
The von Frey filament (trade name: touch test sensory evaluator, Model number: model 58011, manufactured by Muromachi Kikai) was used to evaluate pain, and the results were calculated as a pain threshold. That is, by using a von Frey filament of different stimulus intensity, stimulation was given to the plantar surface of the injured side of rats with chronic constriction nerve injury, and the stimulus intensity to cause paw withdrawal response was obtained. Then, the 50% pain threshold (Paw withdrawal threshold) (g) was calculated by the up down method of Dixon [Annual Review of Pharmacology and Toxicology, vol. 20, pp. 441-462 (1980)].
In the evaluation of the test compound, rats with 50% pain threshold of less than 4 g were used, and the test compound was dissolved in a 0.5% aqueous methyl cellulose solution and orally administered at a dose of 5 mL/kg. One hour after the administration, the pain threshold was measured using von Frey filaments.

human CB2 receptor = target: T2, human CB2 receptor (Homo sapiens, UniProt P34972); test: GTPγS binding assay via human CB2 receptor; format: biochemical; conditions: membrane of human CB2 receptor stably expressing CHO-K1 cells; for EC50: read-out: EC50 value (agonist activity, [35S]GTPγS binding); for Emax: read-out: Emax value (maximum effect relative to CP55940 set to 100%)
T2 construct: expressed in transfected cells
Protocol: GTPγS binding assay via human CB2 receptor
The assay was performed according to a method of Hillard et al. (The Journal of Pharmacology and Experimental Therapeutics, vol. 289, p. 1427 (1999)). For use as a membrane sample, a membrane fraction was prepared from human CB2 receptor stably expressing CHO-K1 cells (Nature, vol. 365, pp. 61-65 (1993)). The membrane sample (final concentration of 40 μg·protein/mL) together with each test compound and [^35S]GTPγS (manufactured by PerkinElmer, final concentration of 0.05 nmol/L), was incubated at 30° C. for 1 hour in the assay buffer solution (50 mmol/L Tris-HCl buffer solution (pH 7.4), 100 mmol/L NaCl, 1 mmol/L EDTA, 3 mmol/L MgCl2 and 0.1% bovine serum albumin) containing 20 μmol/L guanosine 5′-diphosphate (GDP). Then, the mixture was filtered through a glass filter GF/B (manufactured by Whatman). After the glass filter was washed with the assay buffer solution, the radioactivity on the glass filter was measured using a liquid scintillation counter (TRI-CARB 2700TR, manufactured by Packard). The nonspecific binding amount was defined as a binding amount in the presence of 10 μmol/L GTPγS. The specific binding amount was presented as the difference between the total binding amount and the nonspecific binding amount. The increase rate of the specific binding amount in the presence of the test compound relative to the specific binding amount in the absence of the test compound was defined as agonist activity of the test compound. The concentration which gives 50% of the maximum effect of the test compound (EC50 value) was calculated by nonlinear regression analysis of the concentration-response curve. The percentage of the maximum effect of the test compound (Emax value) was calculated based on the maximum effect of CP55940 (manufactured by Tocris) measured simultaneously set to 100%.

T2 sequence (P34972 whole entry): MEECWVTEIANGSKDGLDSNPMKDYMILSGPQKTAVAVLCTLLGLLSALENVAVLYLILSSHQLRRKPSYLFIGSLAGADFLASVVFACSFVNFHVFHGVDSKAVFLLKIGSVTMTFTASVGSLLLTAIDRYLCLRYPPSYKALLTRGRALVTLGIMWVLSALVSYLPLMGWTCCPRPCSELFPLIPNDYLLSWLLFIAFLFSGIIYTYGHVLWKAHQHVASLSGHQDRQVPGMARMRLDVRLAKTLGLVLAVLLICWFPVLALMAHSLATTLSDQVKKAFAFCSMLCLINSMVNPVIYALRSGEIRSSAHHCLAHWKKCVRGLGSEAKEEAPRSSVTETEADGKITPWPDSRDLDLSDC

Structure (SMILES) | Ki (CB2 receptor) [nM] | 50% pain threshold (Paw withdrawal threshold) [1] | EC50 (human CB2 receptor) [nM] | Emax (human CB2 receptor) [%]
CC(C)N(C)C(=O)c1ccn2c(CC3CCOCC3)c(C(C)(C)C)nc2c1 [Compound 17, 2-tert-Butyl-N-isopropyl-N-methyl-3-(tetrahydropyran-4-ylmethyl)-imidazo[1,2-a]pyridine-7-carboxamide] | < 1000 | significantly increased the pain threshold | < 1000 | > 30
CCN(CC)C(=S)c1ccn2c(CC3CCOCC3)c(C(C)(C)C)nc2c1 [Compound 8, 2-tert-Butyl-N,N-diethyl-3-(tetrahydropyran-4-ylmethyl)-imidazo[1,2-a]pyridine-7-carbothioamide] | < 1000 | – | < 1000 | > 30
CCN(CC)C(=S)c1cc2nc(C(C)(C)C)c(CC3CCOCC3)n2cn1 [Compound 16, 2-tert-Butyl-N,N-diethyl-3-(tetrahydropyran-4-ylmethyl)-imidazo[1,2-c]pyrimidine-7-carbothioamide] | < 1000 | – | < 1000 | > 30
CCN(CC)C(=O)c1ccn2c(CC3CCCCO3)c(C(C)(C)C)nc2c1 (centres unmarked) [Compound 27, 2-tert-Butyl-N,N-diethyl-3-(tetrahydropyran-2-ylmethyl)-imidazo[1,2-a]pyridine-7-carboxamide] | < 1000 | – | – | –
CCN(CC)C(=O)c1ccn2c(CC3CCCCC3)c(C(C)(C)C)nc2c1 [Compound 1, 2-tert-Butyl-3-cyclohexylmethyl-N,N-diethylimidazo[1,2-a]-pyridine-7-carboxamide] | < 1000 | – | < 1000 | > 30
CCN(CC)C(=O)c1cc2nc(C(C)(C)C)c(CC3CCOCC3)n2cn1 [Compound 15, 2-tert-Butyl-N,N-diethyl-3-(tetrahydropyran-4-ylmethyl)-imidazo[1,2-c]pyrimidine-7-carboxamide] | < 1000 | significantly increased the pain threshold | < 1000 | > 30
CCN(CC)C(=O)c1cc2nc(C(C)(C)C)c(CC3CCCCC3)n2cn1 [Compound 14, 2-tert-Butyl-3-cyclohexylmethyl-N,N-diethyl-imidazo[1,2-c]-pyrimidine-7-carboxamide] | < 1000 | – | < 1000 | > 30
CC(C)CN(C)C(=O)c1ccn2c(CC3CCOCC3)c(C(C)(C)C)nc2c1 [Compound 18, 2-tert-Butyl-N-isobutyl-N-methyl-3-(tetrahydropyran-4-ylmethyl)imidazo[1,2-a]pyridine-7-carboxamide] | < 1000 | significantly increased the pain threshold | < 1000 | > 30
CCN(CC)C(=O)c1ccn2c(CC3CCOCC3)c(C(C)(C)C)nc2c1 [Compound 2, 2-tert-Butyl-N,N-diethyl-3-(tetrahydropyran-4-ylmethyl)-imidazo[1,2-a]pyridine-7-carboxamide] | < 1000 | significantly increased the pain threshold | < 1000 | > 30
